Read-outs that look alike come from different tables or passages of the source.
Assay: Ocular pharmacokinetics of formulations, Example 20-5
Assay type: in vivo, Dutch Belted rabbits
Conditions: 1 hr post dose on Day 5
Description: The study design (Table 19-1) consisted of forty-seven (47) Dutch Belted rabbits, each receiving a 30 μL bilateral topical ocular dose. Various suspension formulations of the present application were evaluated and compared against a cyclodextrin-based eye drops solution (Control Group 1, Table 19-1). Formula II or Compound-I was used in the test suspensions as well as the Eye Drops solution.
Ocular sampling occurred one hour following the first daily dose on Day 5 for all groups. Whole blood samples using K2EDTA as an anticoagulant were collected from all animals on Day 5, 1 hour post dose. The whole blood was placed on ice until samples were spun in a centrifuge to separate the plasma. Aqueous humor, conjunctiva, cornea, central retina, peripheral retina, central choroid, and peripheral choroid samples were collected following necropsy. Samples were then frozen at −70° C. or lower. For all Groups 1-15, plasma, central retina, central choroid, and cornea samples were assayed. For Group 5 only, samples were analyzed for Vitamin K3.
An analytical method for the analysis of Vitamin K3 was determined in plasma, central retina, central choroid, and cornea samples from Group 5 animals. A calibration curve prepared in control vitreous humor was used to determine the concentration of Vitamin K3. Internal standard (IS) responses were inconsistent for the central choroid and plasma samples. Thus, positive plasma results were likely due to the reduced IS response.

SMILES: Cl.NC(=O)c1c(OCc2c(F)cc(Br)cc2F)nsc1NC(=O)NCCCCN1CCCC1 [Compound-I, 3-[(4-bromo-2,6-difluorophenyl)methoxy]-5-[[[[4-(1-pyrrolidinyl)butyl]amino]carbonyl]amino]-4-isothiazolecarboxamide hydrochloride]
- concentration at 1 h (Dutch Belted, rabbit, cornea, topical, 4 mg/mL, 30 μL per eye, pH 6, Group 1: 4 mg/mL Ophthalmic Solution, pH 6 (Control), QD for 4 days, read-out: Cornea concentration): 14300 nM
- concentration at 1 h (Dutch Belted, rabbit, cornea, topical, 30 μL per eye, Group 10: 2 mg/mL suspension, 50 μm particles, TRIS 0.60%, glycerol 2%, HEC 0.2%, HPMC 0.08%, Vitamin K3 1 μM, pH 6, BID for 4 days, read-out: Cornea concentration): 5000 nM
- concentration at 1 h (Dutch Belted, rabbit, cornea, topical, 30 μL per eye, Group 11: 6 mg/mL suspension, 50 μm particles, TRIS 0.60%, glycerol 2%, HEC 0.2%, HPMC 0.08%, Vitamin K3 1 μM, pH 6, QD for 4 days, read-out: Cornea concentration): 7070 nM
- concentration at 1 h (Dutch Belted, rabbit, cornea, topical, 30 μL per eye, Group 12: 10 mg/mL suspension, 50 μm particles, TRIS 0.60%, glycerol 2%, HEC 0.2%, HPMC 0.08%, Vitamin K3 1 μM, pH 6, QD for 4 days, read-out: Cornea concentration): 24700 nM
- concentration at 1 h (Dutch Belted, rabbit, plasma, topical, 1 mg/mL (30 μL per eye, bilateral), Group 7: 1 mg/mL suspension, 50 μm particles, TRIS 0.60%, glycerol 2%, HEC 0.2%, HPMC 0.08%, Vitamin K3 1 μM, pH 6, QD for 4 days, read-out: Plasma concentration): 2.18 nM
- concentration at 1 h (Dutch Belted, rabbit, plasma, topical, 2 mg/mL (30 μL per eye, bilateral), Group 9: 2 mg/mL suspension, 50 μm particles, TRIS 0.60%, glycerol 2%, HEC 0.2%, HPMC 0.08%, Vitamin K3 1 μM, pH 6, QD for 4 days, read-out: Plasma concentration): 4.05 nM
- concentration at 1 h (Dutch Belted, rabbit, plasma, topical, 4 mg/mL (30 μL per eye, bilateral), Group 5: 4 mg/mL suspension (Control), 30 μm particles (Table 19-1) / Native (≈50) (Table 19-2), TRIS 0.60%, glycerol 2%, HEC 0.2%, HPMC 0.08%, Vitamin K3 1 μM, pH 6, QD for 4 days, read-out: Plasma concentration): 6.26 nM
- concentration at 1 h (Dutch Belted, rabbit, plasma, topical, 4 mg/mL, 30 μL per eye, pH 6, Group 1: 4 mg/mL Ophthalmic Solution, pH 6 (Control), QD for 4 days, read-out: Plasma concentration): 4.28 nM
- concentration at 1 h (Dutch Belted, rabbit, plasma, topical, 30 μL per eye, Group 11: 6 mg/mL suspension, 50 μm particles, TRIS 0.60%, glycerol 2%, HEC 0.2%, HPMC 0.08%, Vitamin K3 1 μM, pH 6, QD for 4 days, read-out: Plasma concentration): 7.72 nM
- concentration at 1 h (Dutch Belted, rabbit, plasma, topical, 30 μL per eye, Group 12: 10 mg/mL suspension, 50 μm particles, TRIS 0.60%, glycerol 2%, HEC 0.2%, HPMC 0.08%, Vitamin K3 1 μM, pH 6, QD for 4 days, read-out: Plasma concentration): 8.61 nM
- Plasma concentration (Group 2: 4 mg/mL suspension, 30 μm particles, TRIS 0.60%, glycerol 2%, HEC 0.2%, HPMC 0.08%, Vitamin K3 1 μM, pH 6, QD for 4 days): 4.64 nM
- concentration at 1 h (Group 2: 4 mg/mL suspension, 30 μm particles, TRIS 0.60%, glycerol 2%, HEC 0.2%, HPMC 0.08%, Vitamin K3 1 μM, pH 6, QD for 4 days, read-out: Central Choroid concentration): 135 nM
- concentration at 1 h (Group 2: 4 mg/mL suspension, 30 μm particles, TRIS 0.60%, glycerol 2%, HEC 0.2%, HPMC 0.08%, Vitamin K3 1 μM, pH 6, QD for 4 days, read-out: Central Retina concentration): 50.6 nM
- concentration at 1 h (Group 2: 4 mg/mL suspension, 30 μm particles, TRIS 0.60%, glycerol 2%, HEC 0.2%, HPMC 0.08%, Vitamin K3 1 μM, pH 6, QD for 4 days, read-out: Cornea concentration): 7480 nM
- Plasma concentration (Group 3: 4 mg/mL suspension, 3 μm particles, TRIS 0.60%, glycerol 2%, HEC 0.2%, HPMC 0.08%, Vitamin K3 1 μM, pH 6, QD for 4 days): 7.04 nM
- concentration at 1 h (Group 3: 4 mg/mL suspension, 3 μm particles, TRIS 0.60%, glycerol 2%, HEC 0.2%, HPMC 0.08%, Vitamin K3 1 μM, pH 6, QD for 4 days, read-out: Central Choroid concentration): 159 nM
- concentration at 1 h (Group 3: 4 mg/mL suspension, 3 μm particles, TRIS 0.60%, glycerol 2%, HEC 0.2%, HPMC 0.08%, Vitamin K3 1 μM, pH 6, QD for 4 days, read-out: Central Retina concentration): 92.8 nM
- concentration at 1 h (Group 3: 4 mg/mL suspension, 3 μm particles, TRIS 0.60%, glycerol 2%, HEC 0.2%, HPMC 0.08%, Vitamin K3 1 μM, pH 6, QD for 4 days, read-out: Cornea concentration): 10200 nM
- Plasma concentration (Group 4: 4 mg/mL suspension (Control), 50 μm particles (Native), TRIS 0.60%, glycerol 2%, HEC 0.2%, HPMC 0.08%, Vitamin K3 1 μM, pH 6, QD for 4 days): 5.98 nM
- concentration at 1 h (Group 4: 4 mg/mL suspension (Control), 50 μm particles (Native), TRIS 0.60%, glycerol 2%, HEC 0.2%, HPMC 0.08%, Vitamin K3 1 μM, pH 6, QD for 4 days, read-out: Central Choroid concentration): 128 nM
- concentration at 1 h (Group 4: 4 mg/mL suspension (Control), 50 μm particles (Native), TRIS 0.60%, glycerol 2%, HEC 0.2%, HPMC 0.08%, Vitamin K3 1 μM, pH 6, QD for 4 days, read-out: Central Retina concentration): 73.5 nM
- concentration at 1 h (Group 4: 4 mg/mL suspension (Control), 50 μm particles (Native), TRIS 0.60%, glycerol 2%, HEC 0.2%, HPMC 0.08%, Vitamin K3 1 μM, pH 6, QD for 4 days, read-out: Cornea concentration): 3930 nM
- Plasma concentration (Group 6: 4 mg/mL suspension, 50 μm particles, TRIS 0.60%, glycerol 2%, HEC 0.2%, HPMC 0.08%, Vitamin K3 1 μM, pH 6, BID for 4 days): 4.15 nM
- concentration at 1 h (Group 6: 4 mg/mL suspension, 50 μm particles, TRIS 0.60%, glycerol 2%, HEC 0.2%, HPMC 0.08%, Vitamin K3 1 μM, pH 6, BID for 4 days, read-out: Central Choroid concentration): 199 nM
- concentration at 1 h (Group 6: 4 mg/mL suspension, 50 μm particles, TRIS 0.60%, glycerol 2%, HEC 0.2%, HPMC 0.08%, Vitamin K3 1 μM, pH 6, BID for 4 days, read-out: Central Retina concentration): 44.1 nM
- concentration at 1 h (Group 6: 4 mg/mL suspension, 50 μm particles, TRIS 0.60%, glycerol 2%, HEC 0.2%, HPMC 0.08%, Vitamin K3 1 μM, pH 6, BID for 4 days, read-out: Cornea concentration): 6410 nM
- Plasma concentration (Group 8: 1 mg/mL suspension, 50 μm particles, TRIS 0.60%, glycerol 2%, HEC 0.2%, HPMC 0.08%, Vitamin K3 1 μM, pH 6, BID for 4 days): 2.11 nM
- concentration at 1 h (Group 8: 1 mg/mL suspension, 50 μm particles, TRIS 0.60%, glycerol 2%, HEC 0.2%, HPMC 0.08%, Vitamin K3 1 μM, pH 6, BID for 4 days, read-out: Central Choroid concentration): 70.8 nM
- concentration at 1 h (Group 8: 1 mg/mL suspension, 50 μm particles, TRIS 0.60%, glycerol 2%, HEC 0.2%, HPMC 0.08%, Vitamin K3 1 μM, pH 6, BID for 4 days, read-out: Central Retina concentration): 34.2 nM
- concentration at 1 h (Group 8: 1 mg/mL suspension, 50 μm particles, TRIS 0.60%, glycerol 2%, HEC 0.2%, HPMC 0.08%, Vitamin K3 1 μM, pH 6, BID for 4 days, read-out: Cornea concentration): 1720 nM
- Plasma concentration (Group 10: 2 mg/mL suspension, 50 μm particles, TRIS 0.60%, glycerol 2%, HEC 0.2%, HPMC 0.08%, Vitamin K3 1 μM, pH 6, BID for 4 days): 3.76 nM
- concentration at 1 h (Group 10: 2 mg/mL suspension, 50 μm particles, TRIS 0.60%, glycerol 2%, HEC 0.2%, HPMC 0.08%, Vitamin K3 1 μM, pH 6, BID for 4 days, read-out: Central Retina concentration): 50.7 nM
- Plasma concentration (Group 13 (different batch of Compound-I): 4 mg/mL suspension, 50 μm particles, TRIS 0.60%, glycerol 2%, HEC 0.2%, HPMC 0.08%, Vitamin K3 1 μM, pH 6, QD for 4 days): 7.09 nM
- concentration at 1 h (Group 13 (different batch of Compound-I): 4 mg/mL suspension, 50 μm particles, TRIS 0.60%, glycerol 2%, HEC 0.2%, HPMC 0.08%, Vitamin K3 1 μM, pH 6, QD for 4 days, read-out: Central Retina concentration): 76.6 nM
- concentration at 1 h (Group 13 (different batch of Compound-I): 4 mg/mL suspension, 50 μm particles, TRIS 0.60%, glycerol 2%, HEC 0.2%, HPMC 0.08%, Vitamin K3 1 μM, pH 6, QD for 4 days, read-out: Cornea concentration): 8550 nM
- Plasma concentration (Group 14 (different batch of Compound-I): 4 mg/mL suspension, 50 μm particles, TRIS 0.60%, glycerol 2%, HEC 0.2%, HPMC 0.08%, Vitamin K3 1 μM, pH 6, QD for 4 days): 2.68 nM
- concentration at 1 h (Group 14 (different batch of Compound-I): 4 mg/mL suspension, 50 μm particles, TRIS 0.60%, glycerol 2%, HEC 0.2%, HPMC 0.08%, Vitamin K3 1 μM, pH 6, QD for 4 days, read-out: Central Choroid concentration): 203 nM
- concentration at 1 h (Group 14 (different batch of Compound-I): 4 mg/mL suspension, 50 μm particles, TRIS 0.60%, glycerol 2%, HEC 0.2%, HPMC 0.08%, Vitamin K3 1 μM, pH 6, QD for 4 days, read-out: Central Retina concentration): 38.4 nM
- concentration at 1 h (Group 14 (different batch of Compound-I): 4 mg/mL suspension, 50 μm particles, TRIS 0.60%, glycerol 2%, HEC 0.2%, HPMC 0.08%, Vitamin K3 1 μM, pH 6, QD for 4 days, read-out: Cornea concentration): 3880 nM
- Plasma concentration (Group 15 (different batch of Compound-I): 4 mg/mL suspension, 50 μm particles, TRIS 0.60%, glycerol 2%, HEC 0.2%, HPMC 0.08%, Vitamin K3 1 μM, pH 6, QD for 4 days): 4.69 nM
- concentration at 1 h (Group 15 (different batch of Compound-I): 4 mg/mL suspension, 50 μm particles, TRIS 0.60%, glycerol 2%, HEC 0.2%, HPMC 0.08%, Vitamin K3 1 μM, pH 6, QD for 4 days, read-out: Central Choroid concentration): 196 nM
- concentration at 1 h (Group 15 (different batch of Compound-I): 4 mg/mL suspension, 50 μm particles, TRIS 0.60%, glycerol 2%, HEC 0.2%, HPMC 0.08%, Vitamin K3 1 μM, pH 6, QD for 4 days, read-out: Central Retina concentration): 63 nM
- concentration at 1 h (Group 15 (different batch of Compound-I): 4 mg/mL suspension, 50 μm particles, TRIS 0.60%, glycerol 2%, HEC 0.2%, HPMC 0.08%, Vitamin K3 1 μM, pH 6, QD for 4 days, read-out: Cornea concentration): 4230 nM

Reference: patent US10183014B2, “Ocular formulations for drug-delivery and protection of the anterior segment of the eye” (PanOptica, Inc., priority 2014, dated 2019)
